Measurements published in paper PMC7967212, “Vitamin D Compounds PRI-2191 and PRI-2205 Enhance Anastrozole Activity in Human Breast Cancer Models” (International Journal of Molecular Sciences, 2021).

Target: T1, aromatase (CYP19) (Homo sapiens, UniProt P11511)
T1 construct: gene CYP19A1
T1 sequence (P11511 1-503): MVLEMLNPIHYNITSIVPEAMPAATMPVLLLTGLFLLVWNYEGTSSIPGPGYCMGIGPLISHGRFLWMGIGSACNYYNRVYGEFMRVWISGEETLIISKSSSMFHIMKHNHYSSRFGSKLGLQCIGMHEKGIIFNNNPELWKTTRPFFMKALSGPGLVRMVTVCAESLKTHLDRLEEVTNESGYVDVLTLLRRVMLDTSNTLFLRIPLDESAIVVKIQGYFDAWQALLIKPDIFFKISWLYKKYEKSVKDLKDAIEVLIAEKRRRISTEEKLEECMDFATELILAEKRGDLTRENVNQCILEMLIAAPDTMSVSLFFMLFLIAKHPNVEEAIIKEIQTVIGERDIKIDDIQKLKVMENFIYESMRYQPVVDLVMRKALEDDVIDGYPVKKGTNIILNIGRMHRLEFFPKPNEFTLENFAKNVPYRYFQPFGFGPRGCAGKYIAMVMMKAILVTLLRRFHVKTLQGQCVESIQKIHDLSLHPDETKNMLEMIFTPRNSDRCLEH
Test: CYP19/MFC High Throughput Inhibitor Screening Kit (Corning No. […]), fluorogenic enzyme inhibition
Assay type: biochemical

IC50: 152 ± 30.5 nM
SMILES: C=C1/C(=C\C=C2/CCC[C@]3(C)[C@@H]([C@H](C)CC[C@@H](O)C(C)C)CC[C@@H]23)C[C@@H](O)C[C@@H]1O [PRI-2191]
